# Legend:
# Details in all cases: stereoisomer not certain
# [1] = RP, 150 × 2.1 mm, 2.6 µm, 40 °C, 0.35 mL/min, estimated dead time 0.94 min; A: water + 0.1% formic acid, pH 3; B: acetonitrile + 0.1% formic acid, pH 3; gradient (min/%B) 0/0 1/5 7/45 8.5/80 10.5/80 11/5 12/5
# [2] = RP, Agilent ZORBAX RRHD Eclipse Plus C18, 50 × 2.1 mm, 1.8 µm, 30 °C, 0.4 mL/min, estimated dead time 0.28 min; A: water + 0.1% formic acid, pH 3; B: acetonitrile + 0.1% formic acid, pH 3; gradient (min/%B) 0/1 5/10 8/25 9.1/99 10/99 12/1
# [3] = RP, Merck Supelco SUPELCOSIL LC-C18, 250 × 4.6 mm, 5 µm, 40 °C, 1 mL/min, estimated dead time 2.6 min; A: water + 0.1% trifluoroacetic acid, pH 2; B: acetonitrile + 0.1% trifluoroacetic acid, pH 2; gradient (min/%B) 0/5 45/35 47/75 49/35 50/5
# [4] = RP, Phenomenex Synergi Hydro-RP, 250 × 2 mm, 4 µm, 25 °C, 0.2 mL/min, estimated dead time 2.5 min; A: water + 0.1% formic acid, pH 3; B: acetonitrile + 0.1% formic acid, pH 3; gradient (min/%B) 0/0.5 7/0.5 12/12.5 25/16.3 47/35 48/65 50/65 50.1/0.5
# [5] = RP, Waters ACQUITY UPLC HSS T3, 100 × 2.1 mm, 1.8 µm, 30 °C, 0.4 mL/min, estimated dead time 0.55 min; A: water + 0.1% formic acid, pH 3; B: acetonitrile + 0.1% formic acid, pH 3; gradient (min/%B) 0/0 2/0 15/100 22/100 22.1/0 26/0
# [6] = RP, 150 × 2.1 mm, 2.6 µm, 40 °C, 0.35 mL/min, estimated dead time 0.94 min; A: water + 0.1% formic acid, pH 3; B: acetonitrile + 0.1% formic acid, pH 3; gradient (min/%B) 0/0 1/0 12.5/100 14/100 14.2/0 15/0
# [7] = RP, Agilent ZORBAX RRHD Eclipse Plus C18, 50 × 2.1 mm, 1.8 µm, 30 °C, 0.4 mL/min, estimated dead time 0.28 min; A: water + 0.1% formic acid, pH 3; B: acetonitrile + 0.1% formic acid, pH 3; gradient (min/%B) 0/1 5/10 8/25 9.1/99 10/99 12/99
# [8] = RP, Waters ACQUITY UPLC BEH Shield RP18, 150 × 2.1 mm, 1.7 µm, 40 °C, 0.4 mL/min, estimated dead time 0.83 min; A: water + 0.1% formic acid, pH 3; B: acetonitrile + 0.1% formic acid, pH 3; gradient (min/%B) 0/0 30/50 31/100 37/100 37.1/0
# [9] = Other, Phenomenex Kinetex PFP, 100 × 4.6 mm, 5 µm, 45 °C, 0.6 mL/min, estimated dead time 1.8 min; A: water + 0.1% trifluoroacetic acid, pH 2; B: methanol; gradient (min/%B) 0/40 20/72 21/40
# [10] = RP, Merck LiChrospher RP-18, 250 × 4 mm, 5 µm, 35 °C, 0.3 mL/min, estimated dead time 6.7 min; A: water + 0.5% formic acid; B: acetonitrile + 0.5% formic acid; gradient (min/%B) 0/5 10/5 30/15 45/20 65/20 95/54 110/63 115/5 135/5
# [11] = RP, Waters Atlantis T3, 100 × 2.1 mm, 3 µm, 40 °C, 0.3 mL/min, estimated dead time 0.73 min; A: water + 0.1% trifluoroacetic acid, pH 2; B: acetonitrile + 0.1% trifluoroacetic acid, pH 2; gradient (min/%B) 0/10 1/10 6/40 7/50 8/50 14/70 16/80 20/10 25/10
# [12] = RP, Agilent InfinityLab Poroshell 120 EC-C18, 100 × 3 mm, 2.7 µm, 25 °C, 0.4 mL/min, estimated dead time 1.1 min; A: water + 0.1% formic acid, pH 3; B: acetonitrile + 0.1% formic acid, pH 3; gradient (min/%B) 0/5 10/25 20/40 24/90 25/90 26/5 30/5
# [13] = RP, Waters ACQUITY UPLC HSS T3, 100 × 2.1 mm, 50 °C; A: water + 0.1% formic acid, pH 3; B: 30% methanol + 70% acetonitrile + 0.1% formic acid, pH 3; gradient (min/%B) 0/5 1/8 2/15 3/40 4/70 4.5/100 5/100 6.4/100 6.6/5 6.8/5 7/5
# [14] = RP, Waters ACQUITY UPLC BEH C18, 100 × 2.1 mm, 1.7 µm, 65 °C, 0.4 mL/min, estimated dead time 0.55 min; A: water + 0.1% formic acid, pH 3; B: 80% acetonitrile + 20% acetone + 0.1% formic acid, pH 3; gradient (min/%B) 0/0 5/100 5.5/0 6/0
# [15] = RP, Phenomenex Luna C18, 150 × 4.6 mm, 3 µm, 25 °C, 0.5 mL/min, estimated dead time 3.2 min; A: water + 0.1% formic acid, pH 3; B: acetonitrile + 0.1% formic acid, pH 3; gradient (min/%B) 0/0 30/30 35/40 50/80 52/80 60/0 65/0
# [16] = RP, Waters ACQUITY UPLC BEH Shield RP18, 100 × 2.1 mm, 1.7 µm, 30 °C, 0.6 mL/min, estimated dead time 0.37 min; A: water + 0.1% formic acid, pH 3; B: acetonitrile + 0.1% formic acid, pH 3; gradient (min/%B) 0/0 2/0 7/10 22/95 22.1/0 26/0
# [17] = RP, Agilent ZORBAX Eclipse XDB-C18, 100 × 2.1 mm, 1.8 µm, 50 °C, 0.4 mL/min, estimated dead time 0.55 min; A: water + 0.1% formic acid, pH 3; B: methanol + 0.1% formic acid, pH 3; gradient (min/%B) 0/2 10/100 14.5/100 14.51/2 16.5/2
# [18] = RP, Phenomenex Kinetex EVO C18, 100 × 2.1 mm, 2.6 µm, 40 °C, 0.4 mL/min, estimated dead time 0.55 min; A: water + 0.2% formic acid; B: acetonitrile + 0.2% formic acid; gradient (min/%B) 0/5 0.5/5 7/95 8/95 8.5/5 12/5
SMILES,LC retention time [1],LC retention time [2],LC retention time [3],LC retention time [4],LC retention time [5],LC retention time [6],LC retention time [7],LC retention time [8],LC retention time [9],LC retention time [10],LC retention time [11],LC retention time [12],LC retention time [13],LC retention time [14],LC retention time [15],LC retention time [16],LC retention time [17],LC retention time [18]
O=C1c2c(O)cc(O)cc2OC(c2ccc(O)c(O)c2)C1O (centres undefined) [Taxifolin],5.86 min,7.85 min,23 min,33.9 min,9.67 min,5.84 min,8.66 min,12.4 min,7.73 min,–,–,–,–,–,–,–,–,–
Oc1ccc(-c2[o+]c3cc(O)cc(O)c3cc2O)cc1 [Pelargonidin],–,–,33.5 min,–,–,–,–,–,12.9 min,42 min,–,–,–,–,–,–,–,–
COc1ccc(C2CC(=O)c3c(O)cc(OC4OC(COC5OC(C)C(O)C(O)C5O)C(O)C(O)C4O)cc3O2)cc1O (centres undefined) [Hesperidin],6.18 min,–,30.1 min,–,9.62 min,6 min,–,13 min,9.9 min,75.1 min,10 min,10.8 min,–,–,–,–,–,–
O=c1c(O)c(-c2ccc(O)c(O)c2)oc2cc(O)cc(O)c12 [Quercetin],–,9.04 min,37.2 min,46.8 min,11 min,–,9.19 min,20.4 min,16.6 min,91 min,9.34 min,14.1 min,3.74 min,2.63 min,–,–,–,–
"O=C(O)c1ccc(O)c(O)c1O [2,3,4-Trihydroxybenzoic acid]",–,–,8.9 min,–,–,–,–,–,4.34 min,–,–,–,–,–,–,–,–,–
O=c1oc2c(O)c(O)cc3c(=O)oc4c(O)c(O)cc1c4c23 [Ellagic acid],–,–,24.8 min,–,–,–,–,–,–,60.3 min,7.94 min,8.97 min,–,1.91 min,14.2 min,13.1 min,–,–
CC1OC(OCC2OC(Oc3c(-c4ccc(O)c(O)c4)oc4cc(O)cc(O)c4c3=O)C(O)C(O)C2O)C(O)C(O)C1O (centres undefined) [Rutin],–,–,25.2 min,34.1 min,–,–,–,12.6 min,8.63 min,59.2 min,7.12 min,8.79 min,–,–,–,–,–,–
O=c1cc2oc(-c3cc(O)c(O)c(O)c3)c(O)cc-2c(O)c1 [Delphinidin],–,–,25.1 min,–,–,–,–,–,8.44 min,–,–,–,–,–,–,–,–,–
O=C(O)c1ccc(O)cc1 [4-Hydroxybenzoic acid],–,3.9 min,11.3 min,19.9 min,–,–,2.55 min,–,5.08 min,39.7 min,3.58 min,–,2.8 min,1.65 min,–,–,2.91 min,2.18 min
COc1cc(-c2[o+]c3cc(O)cc(O)c3cc2O)cc(OC)c1O [Malvidin],–,–,35.9 min,–,–,–,–,–,14.3 min,–,–,–,–,–,–,–,–,–

# Reference: the RepoRT retention time repository (doi:10.1016/j.foodchem.2021.129757)
